Test in all cases: inhibition of tumour cell growth, NCI panel, 48 h
For assay [1], the system named is HCT-15.
Assay [2] relates to UO-31.
In assay [3] the test system is MCF7.
The subject of assay [4] is UACC-257.
Assay [5] relates to ACHN.
Assay [6] relates to SN12C.
Assay [7] relates to TK-10.
Assay [8] relates to OVCAR-5.
The test system of assay [9] is SF-295.
Assay [10] has as its system CCRF-CEM.
Assay [11] has as its system U-251.
Assay [12] concerns OVCAR-4.
Assay [13] relates to SF-268.
The subject of assay [14] is HL-60.
Assay [15] has as its system DU-145.
Assay [16] concerns OVCAR-3.
Assay [17] concerns CAKI-1.
The test system of assay [18] is UACC-62.
Assay [19] relates to Malme-3M.
Assay [20] concerns NCI-H226.

Structures are written as SMILES.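 All cell lines were grown in 96-well plates and treated with compound for 48 hours. GI50 is the concentration that inhibits growth by half.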 Activity calls are given as the source filed them. No stated cut-off is given here; in the data, active = GI50 up to about 1.1 µM and inactive = higher.

Take `Cc1c(C(=O)C(=O)c2ccccc2)c(C)c(C(=O)C(=O)c2ccccc2)c(C)c1C(=O)C(=O)c1ccccc1`: the GI50 was above 100 µM in assay [1]; > 100 µM (inactive) in assay [2]; > 100 µM (inactive) in assay [3]; > 100 µM (inactive) in [4]; > 100 µM (inactive) in assay [5]; > 100 µM (inactive) in assay [6]. The GI50 in assay [7], in assay [8], in [9], in [10], in [11] and in assay [12] was > 100 µM (inactive) throughout. The GI50 in [13] and in [14] was > 100 µM (inactive) each time.

Regarding `COC(=O)c1c(C)cc(OC)c(C/C=C(\C)CCCc2coc(C=C(C)C)c2)c1OC`, the GI50 in assay [15] is > 100 µM (inactive); in assay [1] it was above 100 µM; in assay [2], > 100 µM (inactive); in assay [3], > 100 µM (inactive); in assay [4] it was > 100 µM (inactive); in [5], > 100 µM (inactive). Also, the GI50 in [6], in [7], in assay [8], in assay [16], in assay [17] and in assay [9] was > 100 µM (inactive) each time. Besides, the GI50 is > 100 µM (inactive) in assay [18]; 41.5 µM (inactive) in [10]; > 100 µM (inactive) in assay [11]; > 100 µM (inactive) in [12]; 1.71 µM (inactive) in assay [13]; 21.9 µM (inactive) in assay [14].

As for `OC(CCN1CCCCC1)(c1ccccc1)c1ccccc1` [PRIDINOL], the GI50 in assay [15] was > 100 µM (inactive); in assay [1], above 100 µM; in assay [2], 55.1 µM (inactive); in [3], > 100 µM (inactive); in [19], > 100 µM (inactive); in assay [5], > 100 µM (inactive). Besides, the GI50 in [6], in assay [7], in [8], in [16], in [17] and in assay [9] was > 100 µM (inactive) in each case. The GI50 in assay [18], in assay [10], in [11] and in [13] was > 100 µM (inactive) in each case.

Turning to `CCOc1ccccc1N1C(=O)C(=O)C(c2nc3ccccc3o2)C(=O)C1=O`, the GI50 in assay [1] was above 100 µM; in assay [2] it was 61.5 µM (inactive); in assay [4], > 100 µM (inactive); in assay [19] it was > 100 µM (inactive); in assay [20], > 100 µM (inactive); in assay [5], 28.3 µM (inactive). Also, the GI50 is 93.8 µM (inactive) in assay [6]; 39.7 µM (inactive) in assay [7]; > 100 µM (inactive) in assay [8]; > 100 µM (inactive) in assay [16]; 66.8 µM (inactive) in [17]; 20.8 µM (inactive) in [9]. For the same molecule, the GI50 in assay [18] is > 100 µM (inactive); in assay [10], > 100 µM (inactive); in assay [11] it was > 100 µM (inactive); in [12], 15.7 µM (inactive); in [13], > 100 µM (inactive); in [14] it was > 100 µM (inactive).

With `c1ccc(C2CC(NC3CCCCC3)=Nc3ccccc3N2)cc1` (configuration not stated), the GI50 was > 100 µM (inactive) in assay [15]; 94.2 µM in assay [1]; > 100 µM (inactive) in assay [2]; 47.5 µM (inactive) in assay [4]; 15.6 µM (inactive) in assay [19]; > 100 µM (inactive) in assay [20]. The GI50 was > 100 µM (inactive) in [5]; > 100 µM (inactive) in assay [6]; > 100 µM (inactive) in assay [7]; 78.2 µM (inactive) in assay [8]; > 100 µM (inactive) in assay [16]; 98.9 µM (inactive) in assay [17]. For the same molecule, the GI50 in assay [9] is 44 µM (inactive); in assay [18], 31.2 µM (inactive); in assay [10] it was 34.9 µM (inactive); in [11], 56.9 µM (inactive); in assay [12], > 100 µM (inactive); in assay [13], 65.3 µM (inactive). Moreover, the GI50 in assay [14] was 25.8 µM (inactive).

For the molecule `CCCCCN(CCCCC)C(=O)[C@@H](CCC(=O)O)NC(=O)c1cc2ccccc2[nH]1`, the GI50 in [1] was 37.7 µM; in [2] it was 21.4 µM (inactive); in assay [4], 49.4 µM (inactive); in [19], 35.4 µM (inactive); in assay [20], 37.3 µM (inactive); in assay [5], 30.5 µM (inactive). Besides, the GI50 is 43.4 µM (inactive) in assay [6]; 46.6 µM (inactive) in [7]; > 100 µM (inactive) in assay [8]; 33.9 µM (inactive) in [16]; 25.1 µM (inactive) in assay [17]; 33.9 µM (inactive) in assay [9]. Also, the GI50 is 20.7 µM (inactive) in [18]; 22.8 µM (inactive) in assay [10]; 29.1 µM (inactive) in [11]; 44 µM (inactive) in assay [12]; 24.5 µM (inactive) in [13]; 24.1 µM (inactive) in assay [14].

For the molecule `NNC(=O)/C(=C/c1ccc(Cl)cc1Cl)NC(=O)c1ccccc1`, the GI50 is above 100 µM in assay [1]; > 100 µM (inactive) in assay [2]; > 100 µM (inactive) in [4]; > 100 µM (inactive) in assay [19]; > 100 µM (inactive) in [20]; > 100 µM (inactive) in [5]. For the same molecule, the GI50 in assay [6], in assay [7], in [8], in assay [16], in assay [17] and in assay [9] was > 100 µM (inactive) in each case. Moreover, the GI50 in assay [18] was 41 µM (inactive); in assay [10], 79.8 µM (inactive); in [11] it was > 100 µM (inactive); in assay [12], > 100 µM (inactive); in assay [13], > 100 µM (inactive); in assay [14], > 100 µM (inactive).

For `N#CCC(=O)NC1C2CC3CC(C2)CC1C3` (configuration not stated), the GI50 in assay [1] is 17.2 µM; in [2], 49 µM (inactive); in [4] it was 20.9 µM (inactive); in [19], 20.3 µM (inactive); in assay [20] it was 22.2 µM (inactive); in assay [5], 19.1 µM (inactive). For the same molecule, the GI50 in [6] is 16.1 µM (inactive); in assay [7], 19.4 µM (inactive); in assay [8], 22.1 µM (inactive); in assay [16], 18.1 µM (inactive); in assay [17], 18.6 µM (inactive); in [9], 16.7 µM (inactive). Moreover, the GI50 in [18] is 15.1 µM (inactive); in assay [10], 18.7 µM (inactive); in [11], 16.2 µM (inactive); in assay [12], 21.2 µM (inactive); in assay [13], 17.7 µM (inactive); in assay [14] it was 22.8 µM (inactive).

In the case of `CCCCC(C)C(OC(=O)CC(CC(=O)O)C(=O)O)C(CC(C)CC(O)CCCCC(O)CC(O)C(C)N)OC(=O)CC(CC(=O)O)C(=O)O` (configuration not stated), the GI50 in assay [1] was above 100 µM; in assay [2], > 100 µM (inactive); in assay [4], > 100 µM (inactive); in assay [19] it was > 100 µM (inactive); in assay [20], > 100 µM (inactive); in assay [5], > 100 µM (inactive). In addition, the GI50 in assay [6], in assay [7], in assay [8], in assay [16], in assay [17] and in [9] was > 100 µM (inactive) throughout. Moreover, the GI50 in assay [18] is > 100 µM (inactive); in assay [10], > 100 µM (inactive); in assay [11], > 100 µM (inactive); in [12] it was > 100 µM (inactive); in assay [13], > 100 µM (inactive); in assay [14], > 69.8 µM (inactive).

For the molecule `[O-][Cl+3]([O-])([O-])[O-].c1ccc(-c2csc3c4ccccc4c4ccccc4[n+]23)cc1`, the GI50 in assay [1] was 23.3 µM; in [2] it was 10.7 µM (inactive); in assay [4], 1.08 µM (active); in [19], 1.58 µM (inactive); in [20] it was 3.1 µM (inactive); in assay [5], 10.2 µM (inactive). Besides, the GI50 is 1.65 µM (inactive) in [6]; 13.6 µM (inactive) in assay [7]; 14.3 µM (inactive) in assay [8]; 0.897 µM (active) in assay [16]; 7.5 µM (inactive) in assay [17]; 1.14 µM (inactive) in assay [9]. The GI50 in assay [18] was 1.88 µM (inactive); in assay [10], 2.25 µM (inactive); in assay [11] it was 2.45 µM (inactive); in [12] it was 3.96 µM (inactive); in assay [13], 2.34 µM (inactive); in assay [14], 1.91 µM (inactive).

Regarding `C=C(C)[C@@H]1CC[C@]2(C(=O)O)CC[C@]3(C)[C@H](CCC4[C@@]5(C)CC[C@H](C(=O)/C=C/c6ccc(O)c(O)c6)C(C)(C)[C@@H]5CC[C@]43C)[C@@H]12` (some centres not stated), the GI50 in assay [15] is 5.15 µM (inactive); in [1], 3.31 µM; in assay [2], 3.58 µM (inactive); in [3], 4.04 µM (inactive); in assay [4] it was 2.81 µM (inactive); in [5] it was 2.72 µM (inactive). Further, the GI50 in assay [6] is 5.02 µM (inactive); in [7], 11 µM (inactive); in assay [8], 12.7 µM (inactive); in [16], 10.7 µM (inactive); in [17], 3.66 µM (inactive); in assay [9] it was 3.75 µM (inactive). The GI50 was 3.77 µM (inactive) in assay [18]; 2.42 µM (inactive) in assay [10]; 10.4 µM (inactive) in assay [12]; 5.28 µM (inactive) in assay [13]; 2.17 µM (inactive) in [14].

The values above are taken from ChEMBL document CHEMBL1201862, “PubChem BioAssay data set” (2004).
